According to paper PMC7377239, “Cardiovascular Effects of Polychlorinated Biphenyls and Their Major Metabolites” (Environmental Health Perspectives, 2020):
Read-outs that look alike come from different tables or passages of the source.

How the values were obtained:
[1] = system: iCell endothelial cells (human iPSC-derived ECs); assay: High-content imaging cytotoxicity in iCell endothelial cells, 24 h; type: cell-based; details: Homo sapiens, Endothelial cell, iPSC-EC, 24 hr; for viability at 0.1 µM / activity at 0.1 µM: 0.10 µM; for minimal effective concentration: top concentration 100.00 µM
In short: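 Human iPSC-derived endothelial cells (passages 1–5) were grown to a fibronectin-coated monolayer, then exposed 24 h at 37 °C with 0.5% DMSO vehicle. Staining was Hoechst 33342, MitoTracker Orange and calcein AM, read by high-content imaging. Point of departure came from 4-parameter logistic fits, with a 1-SD vehicle cutoff and 100 µM as the top concentration.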

[2] = system: HUVECs; assay: High-content imaging cytotoxicity in HUVECs, 24 h; type: cell-based, human; details: Homo sapiens, HUVEC, 24 h, HUVECs; for viability at 0.01 µM / activity at 0.01 µM / viability at 0.1 µM / activity at 0.1 µM / viability at 1 µM / activity at 1 µM / viability at 10 µM / activity at 10 µM / viability at 100 µM / activity at 100 µM: 0.00 µM = 100.00; for viability at 0.1 µM / activity at 0.1 µM: 0.10 µM; for minimal effective concentration: top concentration 100.00 µM
In short: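 HUVECs (passages 1–5) were plated at 750 cells/well without fibronectin, grown to a monolayer (3–5 d) and exposed to compounds for 24 h at 37°C, 5% CO2. Hoechst 33342, MitoTracker Orange and calcein AM staining was imaged at 10×; readouts were normalized to 0.5% DMSO vehicle and fit to a four-parameter logistic model.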

[3] = 0.00 µM control = 100.00, read-out: endo.cyto.24hr
[4] = 0.00 µM control = 100.00, read-out: endo.mito.24hr
[5] = 0.00 µM control = 100.00, read-out: endo.mitoint.24hr
[6] = 0.00 µM control = 100.00, read-out: endo.nma.24hr
[7] = 0.00 µM control = 100.00, read-out: endo.tc.24hrs
[8] = 24 hr, read-out: huvec.cyto.24hr
[9] = 24 hr, read-out: huvec.mito.24hr
[10] = 24 hr, read-out: huvec.mitoint.24hr
[11] = 24 hr, read-out: huvec.nma.24hr
[12] = 24 hrs, read-out: huvec.tc.24hrs

For `Clc1ccc(Cl)c(-c2cc(Cl)ccc2Cl)c1` [PCB52], the viability at 0.01 µM [1, 3] was 100%, the activity at 0.01 µM [1, 4] was 99.8% and the activity at 0.01 µM [1, 5] was 92.8%. For the same molecule, the activity at 0.01 µM [1, 6] was 103%, the viability at 0.01 µM [1, 7] was 100% and the viability at 0.1 µM [1, 3] was 98.4%. The activity at 0.1 µM [1, 4] was 97.7%, the activity at 0.1 µM [1, 5] was 87.4% and the activity at 0.1 µM [1, 6] was 103%. It also gave a viability at 0.1 µM [1, 7] of 98.4%, a viability at 1 µM [1, 3] of 97.6% and an activity at 1 µM [1, 4] of 97.5%. It also gave an activity at 1 µM [1, 5] of 92%, an activity at 1 µM [1, 6] of 100% and a viability at 1 µM [1, 7] of 97.6%. For the same molecule, the viability at 10 µM [1, 3] was 99.3%, the activity at 10 µM [1, 4] was 99.4% and the activity at 10 µM [1, 5] was 86.3%. For the same molecule, the activity at 10 µM [1, 6] was 101%, the viability at 10 µM [1, 7] was 99.3% and the viability at 100 µM [1, 3] was 97.2%. It also gave an activity at 100 µM [1, 4] of 97.4%, an activity at 100 µM [1, 5] of 83.6% and an activity at 100 µM [1, 6] of 100%. It also gave a viability at 100 µM [1, 7] of 97.2%, a minimal effective concentration ([1]; read-out: endo.cyto.24hr POD) of 100 µM and a minimal effective concentration ([1]; read-out: endo.mito.24hr POD) of 100 µM. For the same molecule, the minimal effective concentration ([1]; read-out: endo.mitoint.24hr POD) was 100 µM, the minimal effective concentration ([1]; read-out: endo.nma.24hr POD) was 100 µM and the minimal effective concentration ([1]; read-out: endo.tc.24hrs POD) was 100 µM. The viability at 0.01 µM [2, 8] was 94.7%, the activity at 0.01 µM [2, 9] was 94.8% and the activity at 0.01 µM [2, 10] was 107%. For the same molecule, the activity at 0.01 µM [2, 11] was 101%, the viability at 0.1 µM [2, 8] was 97.3% and the activity at 0.1 µM [2, 9] was 96.5%. It also gave an activity at 0.1 µM [2, 10] of 116%, an activity at 0.1 µM [2, 11] of 97.7% and a viability at 1 µM [2, 8] of 92.5%. It also gave an activity at 1 µM [2, 9] of 92%, an activity at 1 µM [2, 10] of 106% and an activity at 1 µM [2, 11] of 100%. For the same molecule, the viability at 10 µM [2, 8] was 66.8%, the activity at 10 µM [2, 9] was 60% and the activity at 10 µM [2, 10] was 55.7%. For the same molecule, the activity at 10 µM [2, 11] was 74.2%, the viability at 100 µM [2, 8] was 45% and the activity at 100 µM [2, 9] was 20.7%. For the same molecule, the activity at 100 µM [2, 10] was 14.1%, the activity at 100 µM [2, 11] was 49.2% and the minimal effective concentration ([2]; 24 hr, read-out: huvec.cyto.24hr POD) was 0.67 µM. For the same molecule, the minimal effective concentration ([2]; 24 hr, read-out: huvec.mito.24hr POD) was 0.57 µM, the minimal effective concentration ([2]; 24 hr, read-out: huvec.mitoint.24hr POD) was 6.01 µM and the minimal effective concentration ([2]; 24 hr, read-out: huvec.nma.24hr POD) was 4.97 µM. For the same molecule, the viability at 0.01 µM [2, 12] was 94.7%, the viability at 0.1 µM [2, 12] was 97.3% and the viability at 1 µM [2, 12] was 92.5%. For the same molecule, the viability at 10 µM [2, 12] was 66.8%, the viability at 100 µM [2, 12] was 45% and the minimal effective concentration ([2]; 24 hrs, read-out: huvec.tc.24hrs POD) was 0.67 µM.
